Measured values from ChEMBL document CHEMBL1201862, “PubChem BioAssay data set” (2004).
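Compound exposure: 48 hours, 5 concentrations, 96-well plates. The concentration for 50% growth inhibition is given as GI50.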 The source made the active and inactive calls. No stated cut-off is given here; in the data, active = GI50 up to about 1.1 µM and inactive = higher.

Experiments:
Assay in all cases: NCI anticancer screen, dose series, 48 h
U-251 = test system: U-251
SW-620 = test system: SW-620
SK-MEL-5 = test system: SK-MEL-5
OVCAR-8 = test system: OVCAR-8
NCI-H460 = test system: NCI-H460
HT-29 = test system: HT-29
OVCAR-5 = test system: OVCAR-5
CAKI-1 = test system: CAKI-1
M19-MEL = test system: M19-MEL
DLD-1 = test system: DLD-1
EKVX = test system: EKVX
HOP-92 = test system: HOP-92
COLO 205 = test system: COLO 205
SK-MEL-2 = test system: SK-MEL-2
SK-OV-3 = test system: SK-OV-3
K562 = test system: K562
OVCAR-4 = test system: OVCAR-4
UACC-62 = test system: UACC-62
M14 = test system: M14
UACC-257 = test system: UACC-257
SN12C = test system: SN12C
SNB-75 = test system: SNB-75
LOX IMVI = test system: LOX IMVI
KM-20L2 = test system: KM-20L2
RXF 393 = test system: RXF 393
NCI-H522 = test system: NCI-H522
786-0 = test system: 786-0
NCI-H226 = test system: NCI-H226
OVCAR-3 = test system: OVCAR-3
SNB-78 = test system: SNB-78
HOP-62 = test system: HOP-62
SR = test system: SR
A498 = test system: A498
DMS-114 = test system: DMS-114
SF-295 = test system: SF-295
DMS-273 = test system: DMS-273
TK-10 = test system: TK-10
SF-539 = test system: SF-539
HCT-15 = test system: HCT-15
KM12 = test system: KM12
HL-60 = test system: HL-60
HCC 2998 = test system: HCC 2998
Malme-3M = test system: Malme-3M
LXFL 529 = test system: LXFL 529
HCT-116 = test system: HCT-116
RPMI-8226 = test system: RPMI-8226
ACHN = test system: ACHN
CCRF-CEM = test system: CCRF-CEM
IGROV-1 = test system: IGROV-1
SK-MEL-28 = test system: SK-MEL-28
MOLT-4 = test system: MOLT-4
UO-31 = test system: UO-31
A549 = test system: A549
SNB-19 = test system: SNB-19
SF-268 = test system: SF-268
NCI-H23 = test system: NCI-H23
HOP-18 = test system: HOP-18
XF498 = test system: XF498

Question: What does the source list for `CC(=O)NNc1nc(C)c(C(=O)NNC(=O)C(=O)Nc2ccc(C)c(C)c2)s1`?
Answer: GI50 (U-251): 96.4 µM (inactive); GI50 (SW-620): > 100 µM (inactive); GI50 (SK-MEL-5): > 100 µM (inactive); GI50 (OVCAR-8): 55.5 µM (inactive); GI50 (NCI-H460): 95.3 µM (inactive); GI50 (HT-29): > 100 µM (inactive); GI50 (OVCAR-5): > 100 µM (inactive); GI50 (CAKI-1): > 100 µM (inactive); GI50 (M19-MEL): 68.1 µM (inactive); GI50 (DLD-1): 93.8 µM (inactive); GI50 (EKVX): > 100 µM (inactive); GI50 (HOP-92): > 100 µM (inactive); GI50 (COLO 205): > 100 µM (inactive); GI50 (SK-MEL-2): > 100 µM (inactive); GI50 (SK-OV-3): > 100 µM (inactive); GI50 (K562): 52.6 µM (inactive); GI50 (OVCAR-4): 72.9 µM (inactive); GI50 (UACC-62): > 100 µM (inactive); GI50 (M14): > 100 µM (inactive); GI50 (UACC-257): > 100 µM (inactive); GI50 (SN12C): > 100 µM (inactive); GI50 (SNB-75): > 100 µM (inactive); GI50 (LOX IMVI): 16.7 µM (inactive); GI50 (KM-20L2): > 100 µM (inactive); GI50 (RXF 393): > 100 µM (inactive); GI50 (NCI-H522): 18.5 µM (inactive); GI50 (786-0): > 100 µM (inactive); GI50 (NCI-H226): > 100 µM (inactive); GI50 (OVCAR-3): 21.3 µM (inactive); GI50 (SNB-78): > 100 µM (inactive); GI50 (HOP-62): > 100 µM (inactive); GI50 (SR): 54.1 µM (inactive); GI50 (A498): > 100 µM (inactive); GI50 (DMS-114): 32.2 µM (inactive); GI50 (SF-295): 78.5 µM (inactive); GI50 (DMS-273): > 100 µM (inactive); GI50 (TK-10): > 100 µM (inactive); GI50 (SF-539): > 100 µM (inactive); GI50 (HCT-15): 78.9 µM; GI50 (KM12): 42.5 µM (inactive); GI50 (HL-60): 70.8 µM (inactive); GI50 (HCC 2998): > 100 µM (inactive); GI50 (Malme-3M): > 100 µM (inactive); GI50 (LXFL 529): 58.2 µM (inactive); GI50 (HCT-116): > 100 µM (inactive); GI50 (RPMI-8226): 50.9 µM (inactive); GI50 (ACHN): > 100 µM (inactive); GI50 (CCRF-CEM): 42.2 µM (inactive); GI50 (IGROV-1): > 100 µM (inactive); GI50 (SK-MEL-28): > 100 µM (inactive); GI50 (MOLT-4): 39.6 µM (inactive); GI50 (UO-31): 74 µM (inactive); GI50 (A549): > 100 µM (inactive); GI50 (SNB-19): > 100 µM (inactive); GI50 (SF-268): > 100 µM (inactive); GI50 (NCI-H23): > 100 µM (inactive); GI50 (HOP-18): > 100 µM (inactive)

Question: Which GI50 (U-251) does the source give for `Cc1ccc(/C=C2\CCCC\C2=N\O)cc1` here?
Answer: The GI50 was 60.1 µM (inactive).

Question: What about the GI50 (SW-620) of the same compound?
Answer: The GI50 was > 100 µM (inactive).

Question: What about the GI50 (SK-MEL-5) of the same compound?
Answer: Its GI50 is 35.1 µM (inactive).

Question: What about the GI50 (OVCAR-8) of the same compound?
Answer: The GI50 was 59.3 µM (inactive).

Question: What about the GI50 (NCI-H460) of the same compound?
Answer: The GI50 was 54 µM (inactive).

Question: What about the GI50 (HT-29) of the same compound?
Answer: Its GI50 is 51.8 µM (inactive).

Question: And the GI50 (CAKI-1)?
Answer: Its GI50 is 56.6 µM (inactive).

Question: What about the GI50 (M19-MEL) of the same compound?
Answer: Its GI50 is 87.7 µM (inactive).

Question: And the GI50 (DLD-1)?
Answer: Its GI50 is 41.9 µM (inactive).

Question: What about the GI50 (EKVX) of the same compound?
Answer: Its GI50 is 80.2 µM (inactive).

Question: What about the GI50 (COLO 205) of the same compound?
Answer: Its GI50 is 81.5 µM (inactive).

Question: What about the GI50 (SK-OV-3) of the same compound?
Answer: Its GI50 is > 100 µM (inactive).

Question: What about the GI50 (K562) of the same compound?
Answer: The GI50 was 41 µM (inactive).

Question: What about the GI50 (OVCAR-4) of the same compound?
Answer: Its GI50 is 38.8 µM (inactive).

Question: And the GI50 (UACC-62)?
Answer: The GI50 was > 100 µM (inactive).

Question: And the GI50 (M14)?
Answer: Its GI50 is > 100 µM (inactive).

Question: And the GI50 (SN12C)?
Answer: Its GI50 is 47 µM (inactive).

Question: And the GI50 (SNB-75)?
Answer: Its GI50 is 26.2 µM (inactive).

Question: What about the GI50 (LOX IMVI) of the same compound?
Answer: The GI50 was 58.7 µM (inactive).

Question: What about the GI50 (KM-20L2) of the same compound?
Answer: The GI50 was 75.9 µM (inactive).

Question: And the GI50 (786-0)?
Answer: Its GI50 is 48.5 µM (inactive).

Question: What about the GI50 (OVCAR-3) of the same compound?
Answer: Its GI50 is > 100 µM (inactive).

Question: And the GI50 (SNB-78)?
Answer: Its GI50 is 30.3 µM (inactive).

Question: And the GI50 (HOP-62)?
Answer: Its GI50 is > 100 µM (inactive).

Question: What about the GI50 (A498) of the same compound?
Answer: The GI50 was 37.7 µM (inactive).

Question: What about the GI50 (SF-295) of the same compound?
Answer: Its GI50 is 74.3 µM (inactive).

Question: What about the GI50 (DMS-273) of the same compound?
Answer: The GI50 was 56.8 µM (inactive).

Question: What about the GI50 (TK-10) of the same compound?
Answer: The GI50 was > 100 µM (inactive).

Question: What about the GI50 (SF-539) of the same compound?
Answer: Its GI50 is 88.3 µM (inactive).

Question: And the GI50 (HCT-15)?
Answer: The GI50 was 44.6 µM.

Question: And the GI50 (XF498)?
Answer: The GI50 was 31.3 µM (inactive).

Question: What about the GI50 (HL-60) of the same compound?
Answer: Its GI50 is 12.9 µM (inactive).

Question: What about the GI50 (HCC 2998) of the same compound?
Answer: Its GI50 is 19.9 µM (inactive).

Question: And the GI50 (LXFL 529)?
Answer: The GI50 was 46.3 µM (inactive).

Question: And the GI50 (HCT-116)?
Answer: The GI50 was 45.9 µM (inactive).

Question: And the GI50 (ACHN)?
Answer: Its GI50 is 37.8 µM (inactive).

Question: And the GI50 (CCRF-CEM)?
Answer: Its GI50 is 45.4 µM (inactive).

Question: What about the GI50 (IGROV-1) of the same compound?
Answer: Its GI50 is 74.5 µM (inactive).

Question: And the GI50 (SK-MEL-28)?
Answer: The GI50 was > 100 µM (inactive).

Question: What about the GI50 (MOLT-4) of the same compound?
Answer: Its GI50 is > 10 µM (inactive).

Question: What about the GI50 (UO-31) of the same compound?
Answer: Its GI50 is 26.9 µM (inactive).

Question: And the GI50 (A549)?
Answer: Its GI50 is 71.8 µM (inactive).

Question: What about the GI50 (SNB-19) of the same compound?
Answer: Its GI50 is 53 µM (inactive).

Question: And the GI50 (SF-268)?
Answer: The GI50 was 51.2 µM (inactive).

Question: What about the GI50 (NCI-H23) of the same compound?
Answer: Its GI50 is 47.3 µM (inactive).

Question: What about the GI50 (HOP-18) of the same compound?
Answer: Its GI50 is 59.6 µM (inactive).

Question: Which results are given for `COc1cc([C@@H]2c3cc4c(cc3[C@@H](NCCCN(C)C)[C@H]3COC(=O)[C@H]23)OCO4)cc(OC)c1O`?
Answer: GI50 (U-251): 0.242 µM (active); GI50 (SW-620): 0.346 µM (active); GI50 (SK-MEL-5): 0.212 µM (active); GI50 (NCI-H460): 0.0232 µM (active); GI50 (HT-29): 0.916 µM (active); GI50 (OVCAR-5): 1.15 µM (inactive); GI50 (M19-MEL): 0.53 µM (active); GI50 (EKVX): 0.745 µM (active); GI50 (SK-OV-3): 0.137 µM (active); GI50 (LOX IMVI): 0.181 µM (active); GI50 (KM-20L2): 0.716 µM (active); GI50 (NCI-H522): 0.637 µM (active); GI50 (OVCAR-3): 0.849 µM (active); GI50 (SF-295): 0.0995 µM (active); GI50 (DMS-273): 0.164 µM (active); GI50 (SF-539): 0.376 µM (active); GI50 (HCT-15): 0.513 µM; GI50 (KM12): 0.769 µM (active); GI50 (HL-60): 0.0582 µM (active); GI50 (HCC 2998): 0.838 µM (active); GI50 (Malme-3M): 0.379 µM (active); GI50 (HCT-116): 0.658 µM (active); GI50 (RPMI-8226): 0.525 µM (active); GI50 (ACHN): 0.076 µM (active); GI50 (CCRF-CEM): 0.098 µM (active); GI50 (IGROV-1): 0.653 µM (active); GI50 (MOLT-4): 0.0222 µM (active); GI50 (UO-31): 0.423 µM (active); GI50 (A549): 0.142 µM (active); GI50 (SNB-19): 0.22 µM (active)
